pEC50: −log10 of the molar value.
Experiments:
Aβ(1–42) = target: T1, Aβ(1–42) (Homo sapiens, UniProt P05067); assay: ThT fluorescence Aβ(1–42) aggregation inhibition assay; assay type: biochemical; conditions: for Inhibition of Aβ(1–42) fibrillation (ThT fluorescence): compounds at 0.5, 5, 50, 500 μM co-incubated with monomeric Aβ(1–42) 25 μM, 37°C, 3 days, concentration of the printed value not stated
T1 construct: Synthesized monomeric Aβ(1–42), […]; […]; IA; made in house; host or cells: chemical synthesis (Fmoc solid phase peptide synthesis)
T1 sequence (P05067 672-713 limits assumed): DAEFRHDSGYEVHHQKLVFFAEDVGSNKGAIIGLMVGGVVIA
Procedure: (§1) ThT fluorescence was used to assess the in vitro inhibition of Aβ(1–42) and disaggregation of Aβ(1–42), Aβ(1–40), Aβ(pE3-42), recombinant tau K18, and tau repeats R1, R2, R3, R4 by YIAD compounds. In house synthetic Aβ(1–42) was dissolved in DMSO (1 mM, 100% DMSO) and diluted to 20-fold in deionized water to make 50 μM Aβ(1–42) stocks (5% DMSO). YIAD compounds were first dissolved in DMSO (100 mM, 100% DMSO) and serially diluted with deionized water to make YIAD stocks with concentrations of 1, 10, 100, and 1000 μM (10% DMSO). For the Aβ(1–42) inhibition assay, monomeric Aβ(1–42) stocks and YIAD stocks were co-incubated at 37°C for 3 days. For Aβ(1–42) disaggregation assay, monomeric Aβ(1–42) stocks were preincubated at 37°C for three days to form Aβ(1–42) aggregates, and subsequently, YIAD stocks were added for an additional 3 days. For Aβ(1-40) disaggregation assays, Aβ(1–40) (50 μM, 5% DMSO) was preincubated at 37°C for 3 days to induce aggregation, and co-incubated with YIAD001 and YIAD002 for an additional 3 days. For Aβ(pE3-42) disaggregation assays, in house synthetic Aβ(pE3-42) (50 μM, 5% DMSO) was preincubated at 37°C for 1 day and co-incubated with YIAD002 for an additional 3 days. For tau K18 disaggregation assay, recombinant tau K18 fragments (35 μM) were dissolved in PBS with 0.1 mg/mL of heparin and 100 μM of DTT, then pre-aggregated at 37°C for 3 days. Then, YIAD stocks were added to aggregated K18 fragments for an additional 3 days. For tau repeat disaggregation assays, tau repeats (R1, R2, R3, R4) (35 μM) were dissolved in PBS with 0.1 mg/mL of heparin and 100 μM of DTT, then pre-aggregated at 37°C for 1 day. Then, YIAD002 was added to aggregated repeats for an additional 3 days. Prior to fluorescence intensity measurement, ThT solution (5 μM) was prepared by dissolving ThT, purchased from Sigma-Aldrich (MO, USA) in 50 mM glycine buffer (pH 8.5). To quantify the effect of inhibition and disaggregation, 25 μL of all samples and 75 μL of ThT solution were loaded into a half-area 96-well black plate in triplicate.

Aβ(1–42) aggregates = target: T2, Aβ(1–42) aggregates (Homo sapiens, UniProt P05067); assay: ThT fluorescence Aβ(1–42) disaggregation assay; assay type: biochemical; conditions: for Decrease of fibrillar Aβ(1–42) aggregates (ThT fluorescence): Aβ(1–42) 25 μM pre-aggregated 37°C 3 days, compound added for additional 3 days, concentration of the printed value not stated; for pEC50: pre-aggregated Aβ(1–42) 25 μM, 3 + 3 days, 37°C
T2 construct: made in house; host or cells: chemical synthesis (Fmoc solid phase peptide synthesis)
T2 sequence (P05067 672-713 limits assumed): as above
Procedure: as §1

BBB-PAMPA = assay type: in vitro ADME; conditions: PAMPA, pH 7.4
Procedure: Commercially available Double-Sink PAMPA (Pion® Double sink) assay was performed using a two compartment 96-well microtiter plate and protocols specified by the manufacturer. […] Stock solutions of controls and YIAD002 were dissolved in DMSO (10 mM) and subsequently diluted to 200-fold in pION buffer (pH 7.4) to 50 μM. The donor plate of the PAMPA sandwich was loaded with 50 μM solutions, and after wetting the artificial membrane with BBB lipid solution, the acceptor plate was loaded with acceptor sink buffer. Then, the acceptor plate was placed on the donor plate and incubated at 25°C for 4 h. Compound concentration in the reference, donor, and acceptor plates were measured on a UV plate.

5XFAD mice = assay: 6E10 immunohistochemical staining of amyloid plaques in 5XFAD mice after oral administration; assay type: in vivo, mouse; conditions: 50 mg/kg/day via drinking water, 5 weeks, 4.5-month-old female 5XFAD mice, vs vehicle
Procedure: To test the in vivo efficacy of YIAD001 and YIAD002, female 5XFAD mice (n = 25) and female wildtype mice (n = 7) were assessed at the age of 4.5 months. YIAD compounds were dissolved in DMSO and diluted in drinking water to a final concentration of 50 mg/kg/day (5% DMSO, 5% Tween) for oral administration. The three compounds, YIAD001, YIAD002, and YIAD003, were freely administered via drinking water to 4.5-month-old 5XFAD mice (n = 6 for each group) for 5 weeks. As a control, 5% DMSO, 5% Tween in drinking water was provided ad libitum to littermate 5XFAD mice (n = 7) and wildtype mice (n = 7) for 5 weeks.
After the administration period, the mice were deeply anaesthetized with 4% avertin through intraperitoneal injection and transcardially perfused with 0.9% saline. Subsequently, the mice were sacrificed for brain excision. Each collected brain was divided through the mid-sagittal section; the hippocampal and cortical regions were dissected from one half and stored at −80°C for subsequent brain lysates, while the other half was immersed in 4% paraformaldehyde (pH 7.4) for 24 h and 30% sucrose for 48 h at 4°C and subsequently deep-froze at −80°C for immunohistochemistry.
Coronal hippocampal sections of 5XFAD mice brains (35 μm) were cut with a Cryostat (Leica, CM1860) and mounted onto glass slides. Antigen retrieval was performed by submerging slides in 1% SDS and unspecific binding was blocked through incubation in 20% horse serum in PBS for 1 h at RT. Aβ deposits were visualized through immunolabeling by anti-6E10 antibody (1:200 in PBS with 5% horse serum, Biolegend 803003) and detection by fluorescent secondary antibody (1:200 in PBS, IgG Alexa 488). Brain sections were additionally stained with Hoechst 33342. Fluorescent images of the brain sections were taken on a Leica DM2500 fluorescence microscope. Amyloid plaques were quantified using Image-J software (NIH).

In the case of `CC(C)(C)c1ccc(OCC(O)CN2CCCCC2)cc1.Cl` (stereo not shown) [YIAD008, 1-(3-(4-(Tert-butyl)phenoxy)-2-hydroxypropyl)piperidin-1-ium chloride], the “Inhibition of Aβ(1–42) fibrillation (ThT fluorescence)” value (Aβ(1–42)) was 70.69%, the “Decrease of fibrillar Aβ(1–42) aggregates (ThT fluorescence)” value (Aβ(1–42) aggregates) was 59.89% and the pEC50 (Aβ(1–42) aggregates) was 3.44. The melting point was 201.7 to 202.2 °C.

For `CC(C)(C)c1ccc(OCC(O)CN2CCOCC2)cc1.Cl` (stereo not shown), the melting point was 197.9 to 198.3 °C.

In the case of `CC(C)(C)c1ccc(OCC(O)CN2CCCC2)cc1.Cl` (stereo not shown) [YIAD010, 1-(3-(4-(Tert-butyl)phenoxy)-2-hydroxypropyl)pyrrolidin-1-ium chloride], the “Inhibition of Aβ(1–42) fibrillation (ThT fluorescence)” value (Aβ(1–42)) was 75.96%, the “Decrease of fibrillar Aβ(1–42) aggregates (ThT fluorescence)” value (Aβ(1–42) aggregates) was 83.56% and the pEC50 (Aβ(1–42) aggregates) was 3.86. It also gave a melting point of 139.9 to 140.4 °C.

Work on `COc1ccc(OCC(O)CN2CCCCC2)cc1.Cl` (stereo not shown) yielded a melting point of 169.3 to 169.9 °C.

For `CNC(=C[N+](=O)[O-])NCCSCc1ccc(CN(C)C)o1` [ranitidine, reference compound], the “Effective permeability coefficient Pe” value (BBB-PAMPA; 4 h, 50 μM) was 0 10^−6 cm/s.

`Cl.OC(COc1ccc(Br)cc1)CN1CCCCC1` (stereo not shown) gave a melting point of 178.1 to 178.6 °C.

In the case of `COc1ccc(OCC(O)CN2CCOCC2)cc1.Cl` (stereo not shown) [YIAD003, 4-(2-Hydroxy-3-(4-methoxyphenoxy)propyl)morpholin-4-ium chloride], the “Activity in anti-Aβ screen” value (Aβ(1–42); inhibitory interaction with Aβ(1–42) aggregation) was “inactive”, the “Number of 6E10-stained plaques” value (5XFAD mice) was “did not cause any change” and the Plaque area (5XFAD mice) was “slight tendency of an increase”. It also gave a melting point of 160.2 to 160.5 °C.

`CC(=O)[C@H]1CC[C@H]2[C@@H]3CCC4=CC(=O)CC[C@]4(C)[C@H]3CC[C@]12C` [progesterone, reference compound] gave a Papp at 4 h, 50 μM (BBB-PAMPA) of 50.9 ×10⁻⁶ cm/s.

In the case of `Cl.OC(COc1ccc(Br)cc1)CN1CCOCC1` (stereo not shown), the melting point was 172.1 to 172.7 °C.

In the case of `Cl.OC(COc1ccc(Br)cc1)CN1CCCC1` (stereo not shown), the melting point was 176.9 to 177.7 °C.

— paper PMC9706920, “Aryloxypropanolamine targets amyloid aggregates and reverses Alzheimer-like phenotypes in Alzheimer mouse models” (Alzheimer's Research & Therapy, 2022)
